The source made the active and inactive calls.
Columns and labels:
[1] = system: LNCaP; test: Apoptotic activity in human LNCaP cells assessed as induction of p21 expression at 12.5 ug/ml after 12 hrs by immunoblot; format: functional, cell-based
[2] = system: LNCaP; test: Apoptotic activity in human LNCaP cells assessed as induction of FasL expression at 12.5 ug/ml after 6 hrs by immunoblot; format: functional, cell-based
[3] = system: LNCaP; test: Induction of apoptosis in human LNCaP cells assessed as procaspase 8 cleavage at 50 ug/ml by immunoblot; format: functional, cell-based; conditions: TDE = time-dependent effect
[4] = system: LNCaP; test: Decrease in mitochondrial membrane potential in human LNCaP cells at 50 ug/ml after 18 hrs; format: functional, cell-based
[5] = system: L929; test: Cytotoxicity against mouse L929 cells after 48 hrs by MTT assay; format: cell-based; conditions: L929, 48 h
[6] = system: LNCaP; test: Induction of procaspase 3 expression in human LNCaP cells at 50 ug/ml after 48 hrs by immunoblot; format: functional, cell-based
[7] = system: LNCaP; test: Cell cycle arrest in human LNCaP cells assessed as accumulation in S phase at 6.25 ug/ml after 4 days; format: functional
[8] = system: LNCaP; test: Induction of procaspase 3 expression in human LNCaP cells at 6.25 ug/ml after 48 hrs by immunoblot; format: functional, cell-based
[9] = system: SW-620; test: Cytotoxicity against human SW620 cells after 48 hrs by MTT assay; format: functional, cell-based; conditions: SW-620, 48 h
[10] = system: LNCaP; test: Cell cycle arrest in human LNCaP cells assessed as accumulation in G1 phase at 6.25 ug/ml after 4 days; format: functional
[11] = system: LNCaP; test: Decrease of PCNA expression in human LNCaP cells after 24 hrs by immunoblotting analysis; format: functional, cell-based
[12] = system: LNCaP; test: Decrease in mitochondrial membrane potential in human LNCaP cells at 6.25 ug/ml after 18 hrs; format: functional
[13] = system: LNCaP; test: Cell cycle arrest in human LNCaP cells assessed as reduction of G1 phase at > 6.25 ug/ml after 4 days; format: functional, cell-based
[14] = system: LNCaP; test: Induction of procaspase 3 expression in human LNCaP cells at 25 ug/ml after 48 hrs by immunoblot; format: functional, cell-based
[15] = system: LNCaP; test: Reduction of NF-kappaB binding to cyclin D promoter in human LNCaP cells by electrophoretic mobility shift assay; format: cell-based
[16] = system: LNCaP; test: Effect on cell morphology in human LNCaP cells assessed as loss of cell surface structure at => 12.5 ug/mL; format: functional
[17] = system: LNCaP; test: Induction of apoptosis in human LNCaP cells assessed as procaspase 3 cleavage by immunoblot; format: functional, cell-based
[18] = system: LNCaP; test: Induction of apoptosis in human LNCaP cells assessed as procaspase 3 cleavage at 50 ug/ml by immunoblot; format: functional, cell-based; conditions: TDE = time-dependent effect
[19] = system: LNCaP; test: Apoptotic activity in human LNCaP cells assessed as induction of Fas expression at 12.5 ug/ml after 24 hrs by immunoblot; format: functional, cell-based
[20] = system: LNCaP; test: Induction of apoptosis in human LNCaP cells assessed as procaspase 8 cleavage at 12.5 ug/ml by immunoblot; format: functional, cell-based; conditions: TDE = time-dependent effect
[21] = system: LNCaP; test: Increase in intracellular ROS generation in human LNCaP cells at 6.25 ug/ml after 30 mins; format: functional
[22] = system: LNCaP; test: Induction of apoptosis in human LNCaP cells assessed as procaspase 3 cleavage at 12.5 ug/ml by immunoblot; format: functional, cell-based; conditions: TDE = time-dependent effect
[23] = system: LNCaP; test: Decrease of cyclin D expression in human LNCaP cells after 24 hrs by immunoblotting analysis; format: functional, cell-based
[24] = system: LNCaP; test: Induction of apoptosis in human LNCaP cells assessed as subG1 phase accumulation at > 6.25 ug/ml after 4 days; format: functional, cell-based
[25] = system: LNCaP; test: Cytotoxicity against human LNCaP cells after 48 hrs by MTT assay; format: functional, cell-based
[26] = system: LNCaP; test: Induction of apoptosis in human LNCaP cells assessed as procaspase 8 cleavage by immunoblot; format: functional, cell-based
[27] = system: LNCaP; test: Increase in p21 mRNA expression in human LNCaP cells at >12.5 ug/mL after 24 hrs by RT-PCR; format: functional, cell-based
[28] = system: LNCaP; test: Increase in intracellular ROS generation in human LNCaP cells at 50 ug/ml after 30 mins; format: functional
[29] = molecular target: Transcription factor Jun (Homo sapiens) (UniProt P05412); test: Reduction of AP1 binding to cyclin D promoter in human LNCaP cells by electrophoretic mobility shift assay; format: cell-based
[30] = system: LNCaP; test: Apoptotic activity in human LNCaP cells assessed as induction of FasL expression after 12 hrs; format: functional, cell-based

Chain of Transcription factor Jun (Homo sapiens) (P05412 whole entry): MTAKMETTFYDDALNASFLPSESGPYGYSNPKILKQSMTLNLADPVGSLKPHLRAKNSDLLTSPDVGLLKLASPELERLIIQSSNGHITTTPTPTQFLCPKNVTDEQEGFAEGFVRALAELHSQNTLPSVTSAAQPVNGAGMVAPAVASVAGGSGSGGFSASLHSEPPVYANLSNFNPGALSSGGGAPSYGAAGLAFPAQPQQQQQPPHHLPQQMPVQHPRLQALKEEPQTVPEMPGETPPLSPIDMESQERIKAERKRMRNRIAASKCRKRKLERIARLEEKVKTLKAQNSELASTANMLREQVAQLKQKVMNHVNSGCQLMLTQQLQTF

O=C1c2c(O)cc(O)cc2O[C@H](c2ccc(O)cc2)[C@@H]1[C@@H]1C(=O)c2c(O)cc(O)cc2O[C@@H]1c1ccc(O)cc1 [NEOCHAMAEJASMIN A]
12.5 µg/mL: IC50 [25]
1.5: fold change (FC) [21]
25.1 µg/mL: IC50 [9]
active: Activity [1] | Activity [2] | Activity [3] tde | Activity [4] | Activity [6] | Activity [8] | Activity [11] Dose-dependent effect | Activity [13] Dose-dependent effect | Activity [14] | Activity [15] | Activity [17] Dose-dependent effect | Activity [18] tde | Activity [19] | Activity [20] tde | Activity [22] tde | Activity [23] Dose-dependent effect | Activity [24] | Activity [26] Dose-dependent effect | Activity [27] | Activity [29] | Activity [30] Dose-dependent effect
3.5: fold change (FC) [28]
>=12.5 ug ml-1: Activity [16]
90 µg/mL: IC50 [5]
1.6: fold change (FC) [12]
<10%: Activity [7]
75%: Activity [10]
